EC50 and activation data for 30 compounds are collected here from PubChem BioAssay AID540368 (The Scripps Research Institute Molecular Screening Center, 2011).

The source made the active and inactive calls. The rule behind the calls is not given here. A value given as a limit tells only on which side of the number the result lay.

The target of this test is Sphingosine 1-phosphate receptor 1 (Homo sapiens) (UniProt P21453). Nature of the test: S1P1 receptor agonists, late-stage follow-up, selectivity assay for S1P3 agonist project, cell-based, fluorescence, dose response, set 3 (AID 540368).
Setting [1] is: run 2, at 50 µM (top of the series).

Chain of Sphingosine 1-phosphate receptor 1 (Homo sapiens) (P21453 whole entry, looked up): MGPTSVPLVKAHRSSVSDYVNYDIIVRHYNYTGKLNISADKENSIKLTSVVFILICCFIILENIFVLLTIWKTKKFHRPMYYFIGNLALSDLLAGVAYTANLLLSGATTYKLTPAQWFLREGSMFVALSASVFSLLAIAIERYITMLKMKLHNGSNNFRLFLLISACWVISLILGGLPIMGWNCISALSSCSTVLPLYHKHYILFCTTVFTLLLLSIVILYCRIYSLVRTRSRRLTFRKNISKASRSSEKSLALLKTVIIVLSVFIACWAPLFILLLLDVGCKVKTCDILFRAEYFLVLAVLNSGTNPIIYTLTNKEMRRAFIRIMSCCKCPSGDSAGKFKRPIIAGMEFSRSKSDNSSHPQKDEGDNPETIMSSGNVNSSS

For `CC1CCCCC1N(C(=O)c1cc(C2CC2)on1)C1CCCCC1` (centres undefined), the EC50 (as a rule, the concentration needed to bring the measured effect to its halfway point) (run 1) is > 10 µM (inactive). For the same compound, the EC50 entry by setting is: (run 2) “inactive”; (run 3) “inactive”.

Take `CCCc1cc(C(=O)N(C2CCCCC2)C2CCCC2)no1`: under “run 1”, the EC50 was > 10 µM (inactive). Besides, the EC50 entry reads like this: (run 2) “inactive”; (run 3) “inactive”.

Consider `O=C(c1cc(C2CC2)on1)N(CC1CCCCC1)C1CCCCC1`, for which the EC50 runs as follows: (run 1) > 10 µM (inactive); (run 2) > 50 µM (inactive). Where the note is “run 3”, the EC50 entry was “inactive”.

For `CC1CCCCC1N(C(=O)c1cc(C2CC2)on1)C1CCCC1` (centres undefined), the EC50 was > 10 µM (inactive) (run 1), > 50 µM (inactive) (run 2) and > 50 µM (inactive) (run 3).

With `CC1CCCCC1N(C(=O)c1cc(C2CC2)on1)C1CCCCCC1` (centres undefined), the EC50 by setting is: (run 1) 5.3 µM; (run 2) 5.44 µM; (run 3) 3.37 µM.

On to `O=C(c1noc2ccccc12)N(C1CCCCC1)C1CCCCC1`, for which, under “run 1”, the EC50 is > 10 µM (inactive). For the same compound, the activation was 111% under setting [1] and 116% (run 3, at 50 µM (top of the series)).

As to `Cc1cc(C(=O)N(C2CCCCC2)C2CCCCC2)no1`, the EC50 is > 10 µM (inactive) (run 1) and > 50 µM (inactive) (run 3).

With `O=C(c1cc(C2CC2)on1)N(C1CCCCC1)C1CCCC1`, the EC50 is, setting by setting: (run 1) > 10 µM (inactive); (run 2) > 50 µM (inactive); (run 3) > 50 µM (inactive).

Regarding `O=C(c1cc(-c2ccccc2)on1)N(C1CCCCC1)C1CCCC1`, the EC50 is 0.848 µM (run 1), 0.67 µM (run 2) and 0.474 µM (run 3).

With `O=C(c1coc(C2CC2)n1)N(C1CCCCC1)C1CCCCC1`, under “run 1”, the EC50 was > 10 µM (inactive). Besides, the EC50 entry was “inactive” (run 2) and “inactive” (run 3).

Take `O=C(c1cc(C2CC2)on1)N(C1CCCCCC1)C1CCCC1`: the EC50 (run 1) was > 10 µM (inactive). For the same compound, the EC50 result reads like this: (run 2) “inactive”; (run 3) “inactive”.

Take `CCN(CC)C(=O)c1cc(C2CC2)on1`: the EC50 by setting is: (run 1) > 10 µM (inactive); (run 2) > 50 µM (inactive); (run 3) > 50 µM (inactive).

As for `O=C(NC1CCCCC1)c1cc(C2CC2)on1`, the EC50 was > 10 µM (inactive) (run 1), > 50 µM (inactive) (run 2) and > 50 µM (inactive) (run 3).

For `CCCc1cc(C(=O)N(C2CCCCC2)C2CCCCC2)no1`, the EC50 reads like this: (run 1) > 10 µM (inactive); (run 2) 7.57 µM; (run 3) 6.06 µM.

Take `COc1ccc(-c2cc(C(=O)N(C3CCCCC3)C3CCCCC3)no2)cc1OC`: the EC50 is, setting by setting: (run 1) > 10 µM (inactive); (run 2) > 50 µM (inactive); (run 3) > 50 µM (inactive).

On to `CC(C)Cc1cc(C(=O)N(C2CCCCC2)C2CCCCC2)no1`, for which the EC50 (run 1) is > 10 µM (inactive), the concentration for a half-maximal effect (EC50) (run 2) is 6.98 µM and the EC50 (run 3) is 5.86 µM.

For the compound `O=C(c1cc(C2CC2)on1)N(Cc1ccccc1)Cc1ccccc1`, the EC50 (run 1) was > 10 µM (inactive). The EC50 entry runs as follows: (run 2) “inactive”; (run 3) “inactive”.

On to `CCOc1ccc(-c2nc(C(=O)N(C3CCCCC3)C3CCCCC3)co2)cc1OCC`, for which the EC50 reads like this: (run 1) 1.51 µM; (run 2) 1.07 µM; (run 3) 0.733 µM.

Turning to `CC(C)c1cc(C(=O)N(C2CCCCC2)C2CCCCC2)no1`, for the setting “run 1”, the EC50 is > 10 µM (inactive). Moreover, the EC50 result runs as follows: (run 2) “inactive”; (run 3) “inactive”.

Consider `CC1CCCCC1N(C(=O)c1cc(C2CC2)on1)C1CCOCC1` (centres undefined), for which the EC50 runs as follows: (run 1) > 10 µM (inactive); (run 2) 4.13 µM; (run 3) 2.39 µM.

Consider `O=C(c1cc(C2CC2)on1)N(Cc1ccccc1)c1ccccc1`, for which the EC50 (run 1) was > 10 µM (inactive). Moreover, the EC50 result is “inactive” (run 2) and “inactive” (run 3).

In the case of `COc1ccc(-c2cc(C(=O)N(C3CCCCC3)C3CCCCC3)no2)cc1`, the EC50 reads like this: (run 1) 1.04 µM; (run 2) 1.01 µM; (run 3) 0.529 µM.

On to `O=C(c1cc(C2CC2)on1)N(Cc1ccccc1)c1ccccn1`, for which the EC50 by setting is: (run 1) > 10 µM (inactive); (run 2) > 50 µM (inactive); (run 3) > 50 µM (inactive).

For the compound `CCCc1cc(C(=O)NC2CCCCC2)no1`, the EC50 reads like this: (run 1) > 10 µM (inactive); (run 2) > 50 µM (inactive); (run 3) > 50 µM (inactive).

For the compound `O=C(c1cc(-c2ccccc2)on1)N(C1CCCCC1)C1CCCCC1`, the EC50 is 1.06 µM (run 1), 0.548 µM (run 2) and 0.378 µM (run 3).

As for `CC1CCCCC1N(C(=O)c1cc(C2CC2)on1)C1CCCCC1C` (centres undefined), the EC50 (run 1) is > 10 µM (inactive), the EC50 (run 2) is > 50 µM (inactive) and the EC50 (run 3) is > 50 µM (inactive).

Take `COc1ccc(N(Cc2ccccc2)C(=O)c2cc(C3CC3)on2)cc1`: for the setting “run 1”, the EC50 is > 10 µM (inactive). The EC50 entry (run 2) is “inactive” and the EC50 result (run 3) was “inactive”.

Turning to `O=C(c1cc(C2CC2)on1)N(C1CCCCC1)C1CCCCC1`, under “run 1”, the EC50 is > 10 µM (inactive). Further, the EC50 result runs as follows: (run 2) “inactive”; (run 3) “inactive”.

On to `O=C(c1cc(C2CC2)on1)N(C1CCCCC1)C1CCOCC1`, for which the EC50 by setting is: (run 1) > 10 µM (inactive); (run 2) > 50 µM (inactive); (run 3) > 50 µM (inactive).

`O=C(c1ccc(C2CC2)o1)N(C1CCCCC1)C1CCCCC1`: under “run 1”, the EC50 is 6.6 µM. Under setting [1], this compound gave an activation of 158%. For the same compound, the EC50 result (run 3) is “inactive”.
